Test [1] deals with T1, baculovirus-expressed ALK (Homo sapiens, UniProt Q9UM73).
T1 construct: host or cells: baculovirus expression system
Briefly: ALK Kinase Assay (ELISA-type, time-resolved fluorescence). In kind it is biochemical. As to conditions: 1 μM ATP (Km level), 30 ng/ml ALK, 37° C., 15 minutes; read-out: ALK Activity (ALK kinase inhibition, IC50 class). The method, boiled down:
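Wells were coated with phospholipase C-γ at 10 μg/mL in Tris-buffered saline. Adding 30 ng/ml enzyme started the reaction, which ran at 37° C for 15 minutes before Eu-N1 PT66 antibody detection. Percent inhibition versus log10 concentration gave IC50 by variable-slope fit.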

Test [2] deals with T2, c-Met (cytoplasmic domain) (Homo sapiens, UniProt P08581).
T2 construct: 10 ng/mL c-Met (cytoplasmic domain, Invitrogen Corporation #PV3143); purchased Invitrogen Corporation PV3143
Briefly: c-Met Kinase Assay (same methods as for ALK, with modifications). Particulars: 1 μM ATP (Km level), 10 ng/mL c-Met; read-out: cMet Activity (c-Met kinase inhibition, IC50 class). In kind it is biochemical. Summed up:
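Steps: coat wells with PLC-γ (10 μg/mL, Tris-buffered saline); add 10 ng/mL c-Met cytoplasmic domain to initiate; incubate 15 min, 37° C; detect phosphoproduct via Eu-N1 PT66 antibody.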

T2 sequence (P08581 956-1390 limits assumed): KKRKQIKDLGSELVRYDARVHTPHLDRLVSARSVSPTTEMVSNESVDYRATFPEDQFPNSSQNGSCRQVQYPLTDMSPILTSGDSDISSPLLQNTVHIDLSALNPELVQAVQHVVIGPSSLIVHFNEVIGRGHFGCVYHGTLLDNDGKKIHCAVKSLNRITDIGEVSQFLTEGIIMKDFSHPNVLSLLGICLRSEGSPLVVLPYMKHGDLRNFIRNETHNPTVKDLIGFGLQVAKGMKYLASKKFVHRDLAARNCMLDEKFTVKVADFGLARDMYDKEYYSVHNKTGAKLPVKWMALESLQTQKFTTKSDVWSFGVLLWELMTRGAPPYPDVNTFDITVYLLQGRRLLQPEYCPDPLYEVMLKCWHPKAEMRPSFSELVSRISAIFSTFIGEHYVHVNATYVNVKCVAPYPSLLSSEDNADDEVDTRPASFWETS
T1 sequence (Q9UM73 19-1620): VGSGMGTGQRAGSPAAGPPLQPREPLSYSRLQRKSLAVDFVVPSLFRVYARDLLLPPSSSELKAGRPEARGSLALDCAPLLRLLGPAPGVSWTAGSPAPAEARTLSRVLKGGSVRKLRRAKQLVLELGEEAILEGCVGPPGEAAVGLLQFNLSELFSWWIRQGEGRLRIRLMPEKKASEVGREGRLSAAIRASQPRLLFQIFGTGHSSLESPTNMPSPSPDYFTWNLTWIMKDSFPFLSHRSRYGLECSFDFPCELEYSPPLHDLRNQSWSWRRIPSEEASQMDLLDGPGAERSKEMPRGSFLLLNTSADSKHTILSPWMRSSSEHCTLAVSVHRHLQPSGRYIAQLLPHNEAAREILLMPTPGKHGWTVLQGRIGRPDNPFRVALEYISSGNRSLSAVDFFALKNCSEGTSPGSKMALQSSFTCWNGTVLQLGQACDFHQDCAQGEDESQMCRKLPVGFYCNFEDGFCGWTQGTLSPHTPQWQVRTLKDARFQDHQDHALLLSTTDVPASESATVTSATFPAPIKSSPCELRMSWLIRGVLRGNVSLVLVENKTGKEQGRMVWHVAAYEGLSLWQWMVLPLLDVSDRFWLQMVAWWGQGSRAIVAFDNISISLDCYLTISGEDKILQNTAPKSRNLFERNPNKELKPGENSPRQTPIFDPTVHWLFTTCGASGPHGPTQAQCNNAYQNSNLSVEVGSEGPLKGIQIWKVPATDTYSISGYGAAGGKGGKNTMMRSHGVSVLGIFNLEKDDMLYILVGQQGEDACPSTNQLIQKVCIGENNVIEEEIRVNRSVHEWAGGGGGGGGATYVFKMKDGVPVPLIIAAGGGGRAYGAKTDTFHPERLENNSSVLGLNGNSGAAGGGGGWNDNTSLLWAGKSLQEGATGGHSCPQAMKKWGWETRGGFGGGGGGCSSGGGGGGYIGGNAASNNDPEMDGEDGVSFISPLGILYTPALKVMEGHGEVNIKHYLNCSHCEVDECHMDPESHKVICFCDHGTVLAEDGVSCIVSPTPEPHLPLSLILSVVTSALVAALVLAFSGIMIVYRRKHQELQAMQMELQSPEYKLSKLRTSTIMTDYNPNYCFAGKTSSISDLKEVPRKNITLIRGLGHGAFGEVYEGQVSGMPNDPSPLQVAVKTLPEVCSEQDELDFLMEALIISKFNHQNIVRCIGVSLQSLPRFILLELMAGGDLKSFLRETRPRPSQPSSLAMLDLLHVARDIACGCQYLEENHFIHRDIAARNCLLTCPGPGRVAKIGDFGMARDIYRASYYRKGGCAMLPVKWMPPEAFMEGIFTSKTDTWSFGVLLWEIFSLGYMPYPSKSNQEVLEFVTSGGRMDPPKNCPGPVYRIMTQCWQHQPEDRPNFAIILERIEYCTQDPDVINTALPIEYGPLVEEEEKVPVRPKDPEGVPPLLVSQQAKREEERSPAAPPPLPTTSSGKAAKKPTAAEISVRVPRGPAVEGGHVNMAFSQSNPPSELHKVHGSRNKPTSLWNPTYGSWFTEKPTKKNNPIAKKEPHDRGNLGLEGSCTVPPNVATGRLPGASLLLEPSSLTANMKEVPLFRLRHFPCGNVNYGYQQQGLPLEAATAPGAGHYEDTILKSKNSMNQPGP

Take `C#CCNC(=O)c1cccc(F)c1Nc1nc(Nc2ccc3c(c2)OCCCN3CC)ncc1Cl` [Example 1407, 2-[5-Chloro-2-(9-ethyl-6,7,8,9-tetrahydro-5-oxa-9-aza-benzocyclohepten-3-ylamino)-pyrimidin-4-ylamino]-3-fluoro-N-prop-2-ynyl-benzamide]: the IC50 was 100 to 1000 nM in test [1] and below 100 nM in test [2].

`COCCN1CCc2ccc(Nc3ncc(Cl)c(Nc4ccccc4C(=O)OC)n3)cc2CC1` [Example 1408, 2-{5-Chloro-2-[3-(2-methoxy-ethyl)-2,3,4,5-tetrahydro-1H-benzo[d]azepin-7-ylamino]-pyrimidin-4-ylamino}-benzoic acid methyl ester]: the IC50 in test [1] was below 100 nM; in test [2] it was 100 to 1000 nM.

As for `CCN1CCCOc2cc(Nc3ncc(Cl)c(Nc4ccsc4C(=O)NC)n3)ccc21` [Example 1409, 3-[5-Chloro-2-(9-ethyl-6,7,8,9-tetrahydro-5-oxa-9-aza-benzocyclohepten-3-ylamino)-pyrimidin-4-ylamino]-thiophene-2-carboxylic acid methyl amide], the IC50 in test [1] and in test [2] was 100 to 1000 nM in each case.

As to `CCOC(=O)N1CCCOc2ccc(Nc3ncc(Cl)c(Nc4ccsc4C(=O)NC)n3)cc21` [Example 1411, 2-[5-Chloro-4-(2-methylcarbamoyl-thiophen-3-ylamino)-pyrimidin-2-ylamino]-7,8-dihydro-6H-5-oxa-9-aza-benzocycloheptene-9-carboxylic acid ethyl ester], the values for the IC50 in test [1] and in test [2] were 100 to 1000 nM and 1000 to 10000 nM, respectively.

As for `CNC(=O)c1cc(N(C)C)ccc1Nc1nc(Nc2ccc3c(c2)NC(=O)CCC3)ncc1Cl` [Example 1412, 2-[5-Chloro-2-(2-oxo-2,3,4,5-tetrahydro-1H-benzo[b]azepin-8-ylamino)-pyrimidin-4-ylamino]-5-dimethylamino-N-methyl-benzamide], the IC50 in test [1] and in test [2] was 100 to 1000 nM in each case.

For the compound `CNC(=O)c1cc(N(C)C)ccc1Nc1nc(Nc2ccc3c(c2)CCN(CCOC)CC3)ncc1Cl` [Example 1413, 2-{5-Chloro-2-[3-(2-methoxy-ethyl)-2,3,4,5-tetrahydro-1H-benzo[d]azepin-7-ylamino]-pyrimidin-4-ylamino}-5-dimethylamino-N-methyl-benzamide], the values for the IC50 in test [1] and in test [2] were below 100 nM and 100 to 1000 nM, respectively.

Consider `CNC(=O)c1cc(Br)cc(F)c1Nc1nc(Nc2ccc3c(c2)NC(=O)CCC3)ncc1Cl` [Example 1414, 5-Bromo-2-[5-chloro-2-(2-oxo-2,3,4,5-tetrahydro-1H-benzo[b]azepin-8-ylamino)-pyrimidin-4-ylamino]-3-fluoro-N-methyl-benzamide], for which the IC50 in test [1] was 100 to 1000 nM; in test [2], below 100 nM.

In the case of `CNC(=O)c1cc(Br)cc(F)c1Nc1nc(Nc2ccc3c(c2)CCN(CCOC)CC3)ncc1Cl` [Example 1415, 5-Bromo-2-{5-chloro-2-[3-(2-methoxy-ethyl)-2,3,4,5-tetrahydro-1H-benzo[d]azepin-7-ylamino]-pyrimidin-4-ylamino}-3-fluoro-N-methyl-benzamide], the IC50 in test [1] and in test [2] was below 100 nM each time.

In the case of `COCCN1CCc2ccc(Nc3ncc(Cl)c(Nc4ccccc4C(=O)NCCN4CCCC4)n3)cc2CC1` [Example 1416, 2-{5-Chloro-2-[3-(2-methoxy-ethyl)-2,3,4,5-tetrahydro-1H-benzo[d]azepin-7-ylamino]-pyrimidin-4-ylamino}-N-(2-pyrrolidin-1-yl-ethyl)-benzamide], the half-maximal inhibitory concentration (IC50) in test [1] and in test [2] was 100 to 1000 nM throughout.

With `CCOC(=O)N1CCCOc2cc(Nc3ncc(Cl)c(Nc4ccsc4C(=O)NC)n3)ccc21` [Example 1418, 3-[5-Chloro-4-(2-methylcarbamoyl-thiophen-3-ylamino)-pyrimidin-2-ylamino]-7,8-dihydro-6H-5-oxa-9-aza-benzocycloheptene-9-carboxylic acid ethyl ester], the IC50 in test [1] and in test [2] was 100 to 1000 nM in each case.

With `CCOC(=O)N1CCCOc2cc(Nc3ncc(Cl)c(Nc4ccccc4C(=O)NC)n3)ccc21` [Example 1419, 3-[5-Chloro-4-(2-methylcarbamoyl-phenylamino)-pyrimidin-2-ylamino]-7,8-dihydro-6H-5-oxa-9-aza-benzocycloheptene-9-carboxylic acid ethyl ester], the concentration for half-maximal inhibition (IC50) in test [1] and in test [2] was below 100 nM throughout.

For `CNC(=O)c1cc(-c2ccc(C#N)cc2)cc(F)c1Nc1nc(Nc2ccc3c(c2)NC(=O)CCC3)ncc1Cl` [Example 1420, 4-[5-Chloro-2-(2-oxo-2,3,4,5-tetrahydro-1H-benzo[b]azepin-8-ylamino)-pyrimidin-4-ylamino]-4′-cyano-5-fluoro-biphenyl-3-carboxylic acid methyl amide], the IC50 in test [1] was below 100 nM; in test [2] it was 100 to 1000 nM.

Turning to `COCCN1CCc2ccc(Nc3ncc(Cl)c(Nc4ccccc4C(=O)NCC4CC4)n3)cc2CC1` [Example 1421, 2-{5-Chloro-2-[3-(2-methoxy-ethyl)-2,3,4,5-tetrahydro-1H-benzo[d]azepin-7-ylamino]-pyrimidin-4-ylamino}-N-cyclopropylmethyl-benzamide], the IC50 in test [1] was below 100 nM; in test [2], 1000 to 10000 nM.

In the case of `CNC(=O)c1cc(-c2cnn(C)c2)cc(F)c1Nc1nc(Nc2ccc3c(c2)NC(=O)CCC3)ncc1Cl` [Example 1422, 2-[5-Chloro-2-(2-oxo-2,3,4,5-tetrahydro-1H-benzo[b]azepin-8-ylamino)-pyrimidin-4-ylamino]-3-fluoro-N-methyl-5-(1-methyl-1H-pyrazol-4-yl)-benzamide], the values for the IC50 in test [1] and in test [2] were 100 to 1000 nM and below 100 nM, respectively.

As for `CNC(=O)c1cc(-c2cnn(C)c2)cc(F)c1Nc1nc(Nc2ccc3c(c2)CCN(CCOC)CC3)ncc1Cl` [Example 1423, 2-{5-Chloro-2-[3-(2-methoxy-ethyl)-2,3,4,5-tetrahydro-1H-benzo[d]azepin-7-ylamino]-pyrimidin-4-ylamino}-3-fluoro-N-methyl-5-(1-methyl-1H-pyrazol-4-yl)-benzamide], the IC50 in test [1] and in test [2] was below 100 nM in each case.

For `CNC(=O)c1cc(-c2cnn(C)c2)cc(F)c1Nc1nc(Nc2ccc3c(c2)N(C(C)=O)CCCO3)ncc1Cl` [Example 1424, 2-[2-(9-Acetyl-6,7,8,9-tetrahydro-5-oxa-9-aza-benzocyclohepten-2-ylamino)-5-chloro-pyrimidin-4-ylamino]-3-fluoro-N-methyl-5-(1-methyl-1H-pyrazol-4-yl)-benzamide], the IC50 was 100 to 1000 nM in test [1] and below 100 nM in test [2].

Take `CCN1CCCOc2ccc(Nc3ncc(Cl)c(Nc4c(F)cc(-c5cnn(C)c5)cc4C(=O)NC)n3)cc21` [Example 1425, 2-[5-Chloro-2-(9-ethyl-6,7,8,9-tetrahydro-5-oxa-9-aza-benzocyclohepten-2-ylamino)-pyrimidin-4-ylamino]-3-fluoro-N-methyl-5-(1-methyl-1H-pyrazol-4-yl)-benzamide]: the IC50 in test [1] and in test [2] was below 100 nM each time.

Turning to `C#CCNC(=O)c1cccc(F)c1Nc1nc(Nc2ccc3c(c2)OCCCN3C(=O)OCCCN(C)C)ncc1Cl` [Example 1427, 3-[5-Chloro-4-(2-fluoro-6-prop-2-ynylcarbamoyl-phenylamino)-pyrimidin-2-ylamino]-7,8-dihydro-6H-5-oxa-9-aza-benzocycloheptene-9-carboxylic acid 3-dimethylamino-propyl ester], the IC50 in test [1] and in test [2] was 100 to 1000 nM each time.

For the compound `CNC(=O)c1sccc1Nc1nc(Nc2ccc3c(c2)OCCCN3C(=O)OCCCN(C)C)ncc1Cl` [Example 1428, 3-[5-Chloro-4-(2-methylcarbamoyl-thiophen-3-ylamino)-pyrimidin-2-ylamino]-7,8-dihydro-6H-5-oxa-9-aza-benzocycloheptene-9-carboxylic acid 3-dimethylamino-propyl ester], the IC50 in test [1] and in test [2] was 100 to 1000 nM in each case.

As for `C#CCNC(=O)c1sccc1Nc1nc(Nc2ccc3c(c2)OCCCN3C(=O)OCCCN(C)C)ncc1Cl` [Example 1429, 3-[5-Chloro-4-(2-prop-2-ynylcarbamoyl-thiophen-3-ylamino)-pyrimidin-2-ylamino]-7,8-dihydro-6H-5-oxa-9-aza-benzocycloheptene-9-carboxylic acid 3-dimethylamino-propyl ester], the IC50 in test [1] and in test [2] was 100 to 1000 nM each time.

As for `C#CCNC(=O)c1cccc(F)c1Nc1nc(Nc2ccc3c(c2)OCCCN3C(=O)OC)ncc1Cl` [Example 1430, 3-[5-Chloro-4-(2-fluoro-6-prop-2-ynylcarbamoyl-phenylamino)-pyrimidin-2-ylamino]-7,8-dihydro-6H-5-oxa-9-aza-benzocycloheptene-9-carboxylic acid methyl ester], the IC50 is 100 to 1000 nM in test [1] and below 100 nM in test [2].

With `C#CCNC(=O)c1cccc(F)c1Nc1nc(Nc2ccc3c(c2)OCCCN3C(=O)OC(C)C)ncc1Cl` [Example 1433, 3-[5-Chloro-4-(2-fluoro-6-prop-2-ynylcarbamoyl-phenylamino)-pyrimidin-2-ylamino]-7,8-dihydro-6H-5-oxa-9-aza-benzocycloheptene-9-carboxylic acid isopropyl ester], the IC50 in test [1] and in test [2] was 100 to 1000 nM in each case.

The term IC50 denotes the concentration that gives 50% inhibition.
